Data reported in US11197856B2, “Bicyclic compounds and methods for their use in treating autism” (priority 2013, dated 2021).

What was measured:
Krox24 = Krox24 immunohistochemical staining of hippocampus; assay type: in vivo, male Wistar rats; conditions: CA1-2 regions; vs vehicle
Description: Aged rats (male Wistar rats, 18-20 months old) were divided into four groups: two vehicle-treated (groups 1 and 3) and two G-2-AllylP treated (groups 2 and 4) (all groups n=6-8). Cyclic G-2-AllylP was synthesised by the Department of Medicinal Chemistry and dissolved in normal saline before the treatment. On day 1 a single dose of cyclic G-2-AllylP was given centrally (20 ng/animal, i.c.v.) to the animals in groups 2 and 4; saline was administered to groups 1 and 3. The memory tests using Novel Object Recognition Test started either on day 3 (groups 1 and 2) or 24 (groups 3 and 4) after the treatment. On the completion of the NORT, the rats were killed with an overdose of sodium pentobarbital and were perfused transcardially with normal saline followed by 10% formalin. Tissues collected at day 7 in groups 1 and 2, and at day 28 from groups 3 and 4. The brains were kept in the same fixative for a minimum of 2 days before being processed using a standard paraffin embedding procedure. Briefly, small blocks (10×10×3 mm) of tissue were fixed for up to 24 hrs. The blocks were then infiltrated and embedded with paraffin and cut in ribbons and mounted on slides. Slides were then stored until immunostaining was commenced. Synaptogenesis in brain tissue was examined using immunohistochemical staining.
The neuronal transcript factor Krox24 staining is used as a marker for neuronal plasticity. […]

[1] = tested on: fmr1-knockout mice and wild-type littermates; assay: Successive Alleys Test; assay type: in vivo
Description: The fmr1-knockout (KO2) mice (C57BL/6 background) were housed in groups of the same genotype in a temperature and humidity controlled room with a 12-h light-dark cycle (lights on 7 am to […]). Testing was conducted during the light phase. Food and water were available ad libitum. Testing was conducted on fmr1-knockout mice and their wild-type littermates. Experiments were conducted according to requirements of the UK Animals (Scientific Procedures) Act, 1986. The animals were divided into four groups:
In one study, we used a “Successive Alleys Test” device. This device consists of four successive, linearly connected increasingly anxiogenic alleys. Each succeeding alley was painted a lighter color, had lower walls and/or was narrower than the previous alley. Animals were placed at the closed end of alley 1 (A1), facing the end wall. The latency to first enter each alley (A2, A3, and/or A4), the amount of time spent in each alley, and the number of entries into each alley were recorded during a total test time of 300 seconds.
For a Successive Alleys Test, we measured the number of entries in Alley 1 (A1), Alley 2 (A2), Alley 3 (A3), and Alley 4 (A4) for each of the 4 groups of animals described above.

[2] = tested on: fmr1-knockout mice and wild-type mice; assay: Marble burying; assay type: in vivo
Description: Mice were placed in an enclosed environment with a bed of wood shavings. Ten (10) marbles were introduced into the environment, and the number of marbles buried was determined by visual observation (median±interquartile range (IQR)).

fmr1-knockout animals = assay: Sociability: bouts of sniffing a novel mouse; assay type: in vivo, mice; conditions: p<0.001
Description: Social recognition and social memory in mice were evaluated by the amount of time spent sniffing a novel mouse upon repeated exposures, to induce familiarity, and reinstatement of high levels of sniffing when a novel stimulus animal is introduced. We measured the number of bouts of sniffing in each of the groups of animals.

[3] = tested on: heterozygous Shank3-deficient mice; assay: Shank3-deficient mice: male-female social interactions and ultrasonic vocalizations; assay type: in vivo; conditions: Shank3-deficient groups; 15 or 60 mg/kg oral b.i.d 14 days; vs placebo
Description: 1 to 3 month old wild-type and heterozygous Shank3-deficient mice are divided into 4 treatment groups: placebo treated wild-type, placebo treated Shank3-deficient group and two Shank3-deficient cG-2-AllylP treated groups. The animals are given placebo (water) or cG-2-AllylP formulated in water administered orally, b.i.d for 14 days. cG-2-AllylP is administered at two doses: 15 or 60 mg/kg.
Behavioral assessments are made at several time points, and include analysis of social interactions and ultrasonic social communication, in line with the methodology described by Bozdagi et al. Briefly, male-female social interactions in each treatment group are evaluated. The subject males are group-housed and individually tested in clean cages with clean litter. Each testing session lasts 5 min. […] Videos from the male subjects are subsequently scored by an investigator uninformed of the subject's genotype and treatment group on measures of nose-to-nose sniffing, nose-to-anogenital sniffing and sniffing of other body regions, using Noldus Observer software (Noldus Information Technology, Leesburg, Va., USA). Ultrasonic vocalizations are identified manually by two highly trained investigators blinded to genotype/treatment group information, and summary statistics are calculated using the Avisoft package. […] Data are analysed using an unpaired Student's t-test.

`C=CC[C@]12CCCN1C(=O)CNC2=O` [cG-2-AllylP, (8aS)-Allyl-hexahydropyrrolo[1,2-a]pyrazine-1,4-dione] was tested, and the “density of the Krox24 staining” value (Krox24) was “trend towards the increased density”, the “number of entries into arm A1” value ([1]; fmr1-knockout animals) was “about 4 times” and the “number of entries into arm A2” value ([1]; fmr1-knockout animals) was “about 4 times”. The “number of entries into arm A3” value ([1]; fmr1-knockout animals) was “about 4 times”, the “number of entries into arm A4” value ([1]; fmr1-knockout animals) was “about 3 times” and the open arm entries ([1]; fmr1-knockout animals vs vehicle, p<0.001) was “significant reduction in open arm entries”. The “time spent in the center” value ([1]; fmr1-knockout animals vs vehicle, p<0.005) was “significant reduction”, the “number of entries into arm A1” value ([1]; wild-type animals) was “about 2 times” and the “number of entries into arm A2” value ([1]; wild-type animals) was “about 4 times”. For the same compound, the marbles buried ([2]; fmr1-knockout animals) was 80%, the “number of marbles buried (median)” value ([2]; fmr1-knockout animals) was 8 of 10 marbles and the marbles buried ([2]; wild-type mice) was 100%. For the same compound, the “number of marbles buried” value ([2]; wild-type mice) was 10 out of 10, the bouts of sniffing (fmr1-knockout animals) was “about 21” and the “cumulative duration of total social sniffing” value [3] was “significant increase in the cumulative duration of total social sniffing”. The “number of ultrasonic vocalizations” value [3] was “increased number of ultrasonic vocalizations”.
